Data published in patent publication US7208273B2, “Common polymorphism in scn5a implicated in drug-induced cardiac arrhythmia” (University of Utah Research Foundation, priority 2000, dated 2007).

Tested on: African-American individuals with SCN5A variant S1103Y
Settings: carriers of SCN5A S1103Y variant; three individuals after amiodarone treatment, one after infusion of brevital; QT prolongation exacerbated in these cases
Source text: To determine the genetic basis for these arrhythmias, individuals with drug-induced torsade de pointes and ventricular fibrillation were screened for mutations in known arrhythmia genes.

C=CCC1(C(C)C#CCC)C(=O)N=C([O-])N(C)C1=O.[Na+] (stereo not shown) [brevital]
arrhythmia after drug treatment: experienced arrhythmia
